The results in this text go back to patent US20250368628A1, “METHODS AND COMPOUNDS FOR MODULATING INHERITED GENETIC DISEASES” (Design Therapeutics, Inc., priority 2022, published 2025).

The term EC50 denotes the concentration that produces a half-maximal response.

In assay [1] the test system is Myotonic Dystrophy 1 affected patient fibroblasts (Coriel GM04602; 1600 CTG repeats). Put plainly: DM1 foci reduction assay (EC50 assay; CAG10-Cy3 FISH, foci per nucleus). The format is cell-based. The conditions noted are these: Homo sapiens, Fibroblast; DM1 patient fibroblasts, 48 h treatment, foci per nucleus; read-out: DM1 EC50, 48 h. A digest of the protocol:
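Foci per nucleus counted by 20× imaging of 4 areas per well, after overnight FISH with 5 nM CAG10-Cy3 and DAPI staining of fixed, permeabilized cells. DM1 fibroblasts (GM04602, 1600 CTG) were dosed 48 h at 37 °C, 8 points, 3-fold dilutions, 3 μM top concentration.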

The subject of assay [2] is F35T cells. Description: Foci reduction in FECD (CAG10-Cy3 FISH, foci per nucleus). The format is cell-based. The conditions noted are these: F35T cells, 48 h treatment, foci per nucleus; read-out: FECD EC50, 48 h. In short, it runs like this: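 Foci per nucleus were counted by imaging after overnight CAG10-Cy3 FISH at 37 °C (30% formamide, 2×SSC) with DAPI counterstain, on PFA-fixed, ethanol-permeabilized F35T cells. The cells, seeded at 5000 per well in supplemented Opti-MEM, had received 8-point compound dilutions for 48 h at 37 °C.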

Where only a bound is given, the exact number is not on record here.

Regarding `CCN(CC)CCCC[C@H](NC(C)=O)C(=O)Nc1ccc(OCCOCCOCCNC(=O)CCNC(=O)c2nc(NC(=O)c3cc(NC(=O)CCNC(=O)c4nc(NC(=O)CCCNC(=O)c5cc(NC(=O)c6nc(NC(=O)CCNC(=O)c7cc(NC(=O)c8nccn8C)cn7C)cn6C)cn5C)cn4C)cn3C)cn2C)cc1` [Compound B-147], the EC50 in assay [1] and in assay [2] was 100 to 500 nM in each case.

Take `CCN(CC)CCCC[C@@H](NC(C)=O)C(=O)Nc1ccc(OCCOCCOCCNC(=O)CCNC(=O)c2nc(NC(=O)c3cc(NC(=O)CCNC(=O)c4nc(NC(=O)CCCNC(=O)c5cc(NC(=O)c6nc(NC(=O)CCNC(=O)c7cc(NC(=O)c8nccn8C)cn7C)cn6C)cn5C)cn4C)cn3C)cn2C)cc1` [Compound B-148]: the EC50 in assay [1] is greater than 1000 nM; in assay [2], 100 to 500 nM.

Regarding `CCN(CC)CCCC[C@H](NC(C)=O)C(=O)Nc1ccc(CNC(=O)CCNC(=O)c2nc(NC(=O)c3cc(NC(=O)CCNC(=O)c4nc(NC(=O)CCCNC(=O)c5cc(NC(=O)c6nc(NC(=O)CCNC(=O)c7cc(NC(=O)c8nccn8C)cn7C)cn6C)cn5C)cn4C)cn3C)cn2C)cc1` [Compound B-149], the EC50 in assay [1] is 100 to 500 nM; in assay [2], greater than 1000 nM.

As to `Cn1cc(NC(=O)c2nc(NC(=O)CCNC(=O)c3cc(NC(=O)c4nccn4C)cn3C)cn2C)cc1C(=O)NCCCC(=O)Nc1cn(C)c(C(=O)NCCC(=O)Nc2cc(C(=O)Nc3cn(C)c(C(=O)NCCC(=O)N[C@@H](CCCNC(=N)N)C(=O)N[C@@H](CCCNC(=N)N)C(=O)NCCCCN=[N+]=[N-])n3)n(C)c2)n1` [Compound B-150], the EC50 in assay [1] and in assay [2] was greater than 1000 nM throughout.

For `Cn1cc(NC(=O)c2nc(NC(=O)CCNC(=O)c3cc(NC(=O)c4nccn4C)cn3C)cn2C)cc1C(=O)NCCCC(=O)Nc1cn(C)c(C(=O)NCCC(=O)Nc2cc(C(=O)Nc3cn(C)c(C(=O)NCCC(=O)N[C@@H](CCCNC(=N)N)C(=O)N[C@@H](CCCNC(=N)N)C(=O)N[C@@H](CCCNC(=N)N)C(=O)N[C@@H](CCCNC(=N)N)C(=O)NCCCCN=[N+]=[N-])n3)n(C)c2)n1` [Compound B-151], the EC50 in assay [1] was greater than 1000 nM; in assay [2], 100 to 500 nM.

Consider `Cn1cc(NC(=O)c2nc(NC(=O)CCNC(=O)c3cc(NC(=O)c4nccn4C)cn3C)cn2C)cc1C(=O)NCCCC(=O)Nc1cn(C)c(C(=O)NCCC(=O)Nc2cc(C(=O)Nc3cn(C)c(C(=O)NCCC(=O)NCCCCC(=O)N[C@@H](CCCNC(=N)N)C(=O)N[C@@H](CCCNC(=N)N)C(=O)NCCCCN=[N+]=[N-])n3)n(C)c2)n1` [Compound B-154], for which the EC50 is greater than 1000 nM in assay [1] and 100 to 500 nM in assay [2].

In the case of `COCCOCCOCCOCCN(CCCCCn1cc(NC(=O)CCNC(=O)c2nc(NC(=O)CCCNC(=O)c3cc(NC(=O)c4nc(NC(=O)CCNC(=O)c5cc(NC(=O)c6nccn6C)cn5C)cn4C)cn3C)cn2C)cc1C(=O)Nc1cn(C)c(C(=O)NCCC(=O)N2CCC(N3CCNCC3)CC2)n1)CCOCCOCCOCCOC` [Compound B-158], the EC50 in assay [1] and in assay [2] was greater than 1000 nM in each case.

`CCCNC(=O)CCNC(=O)c1nc(NC(=O)c2cc(NC(=O)CCNC(=O)c3nc(NC(=O)CCCNC(=O)c4cc(NC(=O)c5nc(NC(=O)CCNC(=O)c6cc(NC(=O)c7nccn7C)cn6C)cn5C)cn4CCCCCN(CCOCCOCCOCCOC)CCOCCOCCOCCOC)cn3C)cn2C)cn1C` [Compound B-161]: the EC50 in assay [1] lay within 500 to 1000 nM; in assay [2], 100 to 500 nM.

`CCCNC(=O)CCNC(=O)c1nc(NC(=O)c2cc(NC(=O)CCNC(=O)c3nc(NC(=O)CCCNC(=O)c4cc(NC(=O)c5nc(NC(=O)CCNC(=O)c6cc(NC(=O)c7nccn7C)cn6C)cn5C)cn4CCCCC(=O)N(CCOCCOCCOCCOC)CCOCCOCCOCCOC)cn3C)cn2C)cn1C` [Compound B-163]: the EC50 in assay [1] and in assay [2] was 100 to 500 nM in each case.

For the compound `COCCOCCOCCOCCN(CCOCCOCCOCCOC)C(=O)CCCCn1cc(NC(=O)c2nc(NC(=O)CCNC(=O)c3cc(NC(=O)c4nccn4C)cn3C)cn2C)cc1C(=O)NCCCC(=O)Nc1cn(C)c(C(=O)NCCC(=O)Nc2cc(C(=O)Nc3cn(C)c(C(=O)NCCC(=O)N4CCC(N5CCNCC5)CC4)n3)n(C)c2)n1` [Compound B-164], the results for the EC50 in assay [1] and in assay [2] were 500 to 1000 nM and 100 to 500 nM, respectively.

Regarding `CC(C)CCC(=O)N1CCC(C#CC#CC2CCN(CCOCCOCCOCCNC(=O)CCNC(=O)c3nc(NC(=O)c4cc(NC(=O)CCNC(=O)c5nc(NC(=O)CCCNC(=O)c6cc(NC(=O)c7nc(NC(=O)CCNC(=O)c8cc(NC(=O)c9nccn9C)cn8C)cn7C)cn6C)cn5C)cn4C)cn3C)CC2)CC1` [Compound B-169], the EC50 in assay [1] and in assay [2] was 100 to 500 nM in each case.

Take `CC(C)CCCN1CCC(C#CC#CC2CCN(CCOCCOCCOCCNC(=O)CCNC(=O)c3nc(NC(=O)c4cc(NC(=O)CCNC(=O)c5nc(NC(=O)CCCNC(=O)c6cc(NC(=O)c7nc(NC(=O)CCNC(=O)c8cc(NC(=O)c9nccn9C)cn8C)cn7C)cn6C)cn5C)cn4C)cn3C)CC2)CC1` [Compound B-170]: the EC50 in assay [1] and in assay [2] was 100 to 500 nM each time.

`CCCCCC(=O)N1CCC(C#CC#CC2CCN(CCOCCOCCOCCNC(=O)CCNC(=O)c3nc(NC(=O)c4cc(NC(=O)CCNC(=O)c5nc(NC(=O)CCCNC(=O)c6cc(NC(=O)c7nc(NC(=O)CCNC(=O)c8cc(NC(=O)c9nccn9C)cn8C)cn7C)cn6C)cn5C)cn4C)cn3C)CC2)CC1` [Compound B-171]: the EC50 in assay [1] is less than 100 nM; in assay [2], 100 to 500 nM.

For `CCCCCCN1CCC(C#CC#CC2CCN(CCOCCOCCOCCNC(=O)CCNC(=O)c3nc(NC(=O)c4cc(NC(=O)CCNC(=O)c5nc(NC(=O)CCCNC(=O)c6cc(NC(=O)c7nc(NC(=O)CCNC(=O)c8cc(NC(=O)c9nccn9C)cn8C)cn7C)cn6C)cn5C)cn4C)cn3C)CC2)CC1` [Compound B-172], the EC50 in assay [1] was less than 100 nM; in assay [2] it was 100 to 500 nM.

Regarding `CSCCCC(=O)N1CCC(C#CC#CC2CCN(CCOCCOCCOCCNC(=O)CCNC(=O)c3nc(NC(=O)c4cc(NC(=O)CCNC(=O)c5nc(NC(=O)CCCNC(=O)c6cc(NC(=O)c7nc(NC(=O)CCNC(=O)c8cc(NC(=O)c9nccn9C)cn8C)cn7C)cn6C)cn5C)cn4C)cn3C)CC2)CC1` [Compound B-173], the EC50 in assay [1] and in assay [2] was 100 to 500 nM each time.

Take `CSCCCCN1CCC(C#CC#CC2CCN(CCOCCOCCOCCNC(=O)CCNC(=O)c3nc(NC(=O)c4cc(NC(=O)CCNC(=O)c5nc(NC(=O)CCCNC(=O)c6cc(NC(=O)c7nc(NC(=O)CCNC(=O)c8cc(NC(=O)c9nccn9C)cn8C)cn7C)cn6C)cn5C)cn4C)cn3C)CC2)CC1` [Compound B-174]: the EC50 in assay [1] and in assay [2] was 100 to 500 nM in each case.

For the compound `Cn1cc(NC(=O)c2nc(NC(=O)CCNC(=O)c3cc(NC(=O)c4nccn4C)cn3C)cn2C)cc1C(=O)NCCCC(=O)Nc1cn(C)c(C(=O)NCCC(=O)Nc2cc(C(=O)Nc3cn(C)c(C(=O)NCCC(=O)NCCOCCOCCOCCN4CCC(C#CC#CC5CCN(C(=O)c6ccc(C(C)(C)C)cc6)CC5)CC4)n3)n(C)c2)n1` [Compound B-175], the EC50 in assay [1] and in assay [2] was 100 to 500 nM throughout.

Regarding `Cn1cc(NC(=O)c2nc(NC(=O)CCNC(=O)c3cc(NC(=O)c4nccn4C)cn3C)cn2C)cc1C(=O)NCCCC(=O)Nc1cn(C)c(C(=O)NCCC(=O)Nc2cc(C(=O)Nc3cn(C)c(C(=O)NCCC(=O)NCCCCCN4CCC(C#CC#CC5CCN(C(=O)c6ccc(C(C)(C)C)cc6)CC5)CC4)n3)n(C)c2)n1` [Compound B-177], the EC50 lay within 500 to 1000 nM in assay [1] and 100 to 500 nM in assay [2].
